# Laboratory results as given in US20240285547A1, “NEPHROTOXICITY REDUCING AGENT” (Nippon Shinyaku Co., Ltd., priority 2021, published 2024).
# Assays:
# [1] = Evaluation of precipitation suppressing effects with D-mannitol (absorbance at 620 nm in presence of ions assumed to be in urine); type: physicochemical; conditions: D-mannitol as medium for PMO Nos. 1, 2, 3, 5, 6, 7, ions assumed to be in urine, 37° C.
# Experimental: The amount of precipitation in the presence of ions assumed to be in urine and precipitation suppressing effects of D-mannitol were evaluated on the antisense oligomers of PMO Nos. 1, 2, 3, 5, 6, and 7 (SEQ ID NO: 1, 2, 3, 5, 6, and 7) among those listed in Table 1 to further verify their utility for pharmaceutical applications.
# [2] = tested on: C57BL/6J male mice; assay: Evaluation of nephrotoxicity reducing effects of D-mannitol: serum BUN and Cre after tail vein administration of PMO dosing solutions; conditions: D-mannitol in PMO dosing solution vs control dosing solution comprising no D-mannitol
# Source text: The antisense oligomers of PMO Nos. 1, 2, 6, 7, and 10 were each dissolved in water for injection comprising 0.9% sodium chloride (manufactured by Otsuka Pharmaceutical Co., Ltd.) to prepare a control dosing solution comprising each of the antisense oligomers at the concentrations shown in Tables 2, 3, 6, 7, and 8 and comprising no D-mannitol. Also, the antisense oligomers of PMO Nos. 3 and 4 were each dissolved in 5% glucose (manufactured by Otsuka Pharmaceutical Co., Ltd.) to prepare a control dosing solution comprising each of the antisense oligomers at the concentrations shown in Tables 4 and 5 and comprising no D-mannitol. […]
# The obtained dosing solutions were administered into the tail vein of 6-week-old C57BL/6J male mice at 4, 10, and 20 mL/kg. Next day, serum was collected from the mice, and the blood urea nitrogen (BUN) values and blood creatinine (Cre) values were measured with the urease-GIDH method and the enzymatic method, respectively, using automatic biochemical analyzers JCA-BM6050 or JCA-BM8060 (manufactured by JEOL Ltd.).
# [3] = tested on: C57BL/6J male mice; assay: Evaluation of nephrotoxicity reducing effects of D-sorbitol: serum BUN and Cre after tail vein administration of PMO dosing solutions; conditions: D-sorbitol in PMO dosing solution vs dosing solution comprising no D-sorbitol
# Experimental: Next, the antisense oligomer of PMO No. 2 was dissolved in a solution obtained by dissolving D-sorbitol (manufactured by Maruishi Pharmaceutical Co., Ltd.) with physiological saline to prepare a dosing solution comprising the antisense oligomer and D-sorbitol at the concentrations shown in Table 9. Also, the antisense oligomer of PMO No. 3 was dissolved in a solution obtained by dissolving D-sorbitol with water for injection to prepare a dosing solution comprising the antisense oligomer and D-sorbitol at the concentrations shown in Table 10.
# The obtained dosing solutions were administered into the tail vein of 6-week-old C57BL/6J male mice (N=3) at 4 and 10 mL/kg. Next day, serum was collected from the mice, and the blood urea nitrogen (BUN) values and blood creatinine (Cre) values were measured with the urease-GIDH method and the enzymatic method, respectively, using automatic biochemical analyzers JCA-BM8060 (manufactured by JEOL Ltd.). It was determined that the nephrotoxicity was reduced in a case where both of the BUN values and Cre values decreased in the mice to which the dosing solution comprising D-sorbitol has been administered, compared to the mice to which the dosing solution comprising no D-sorbitol has been administered.
Compound,Precipitation suppressing effect [1],Nephrotoxicity reducing effect [2],Nephrotoxicity reducing effect [3]
OC[C@@H](O)[C@@H](O)[C@H](O)[C@H](O)CO [D-mannitol],suppress the precipitation of antisense oligomers,reduce nephrotoxicity,–
OC[C@@H](O)[C@@H](O)[C@H](O)[C@@H](O)CO [D-sorbitol],–,–,reduce nephrotoxicity
